Measured values reported in PubChem BioAssay (NCI).
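Assay format: 96-well plates, 48-hour exposure. TGI marks complete inhibition of growth.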

Tests used:
Assay in all cases: NCI-60 cell line screen, 48 h
SK-MEL-2 melanoma = test system: SK-MEL-2 melanoma
KM12 colon = test system: KM12 colon
TK-10 renal = test system: TK-10 renal
CAKI-1 renal = test system: CAKI-1 renal
OVCAR-8 ovarian = test system: OVCAR-8 ovarian
EKVX NSCLC = test system: EKVX NSCLC
A549 NSCLC = test system: A549 NSCLC
HCC-2998 colon = test system: HCC-2998 colon
CCRF-CEM leukemia = test system: CCRF-CEM leukemia
SF-539 CNS = test system: SF-539 CNS

## Cc1cccc(C2=NC(C)(C)C(C)(C)N=C2c2cccc(C)n2)n1
SK-MEL-2 melanoma
  TGI: > 100 µM
KM12 colon
  TGI: > 100 µM
TK-10 renal
  TGI: > 100 µM
CAKI-1 renal
  TGI: > 100 µM
OVCAR-8 ovarian
  TGI: > 100 µM
EKVX NSCLC
  TGI: > 100 µM
A549 NSCLC
  TGI: > 100 µM
HCC-2998 colon
  TGI: > 100 µM
CCRF-CEM leukemia
  TGI: > 100 µM
SF-539 CNS
  TGI: > 100 µM

## COC(=O)n1c(=O)n(-c2ccccc2)c(=O)n1C(=O)OC
SK-MEL-2 melanoma
  TGI: > 100 µM
KM12 colon
  TGI: > 100 µM
TK-10 renal
  TGI: > 100 µM
CAKI-1 renal
  TGI: > 100 µM
OVCAR-8 ovarian
  TGI: > 100 µM
EKVX NSCLC
  TGI: > 100 µM
A549 NSCLC
  TGI: > 100 µM
HCC-2998 colon
  TGI: > 100 µM
CCRF-CEM leukemia
  TGI: > 100 µM
SF-539 CNS
  TGI: > 100 µM

## C=C(CC[C@@H](C(=O)O)[C@H]1[C@H](O)C[C@@]2(C)C3=CC[C@@H](C(=C)C)[C@](C)(CCC(=O)O)C3=CC[C@]12C)C(C)C
SK-MEL-2 melanoma
  TGI: 34.3 µM
KM12 colon
  TGI: 32.6 µM
TK-10 renal
  TGI: 32.3 µM
CAKI-1 renal
  TGI: 28.9 µM
OVCAR-8 ovarian
  TGI: 39.9 µM
EKVX NSCLC
  TGI: 32.3 µM
A549 NSCLC
  TGI: 35.1 µM
HCC-2998 colon
  TGI: 32.4 µM
CCRF-CEM leukemia
  TGI: > 100 µM
SF-539 CNS
  TGI: 37.7 µM

## C=CCSC1=N/C(=C\c2ccccc2)C(=O)N1CC=C
SK-MEL-2 melanoma
  TGI: 97.6 µM
KM12 colon
  TGI: > 100 µM
TK-10 renal
  TGI: > 100 µM
CAKI-1 renal
  TGI: > 100 µM
OVCAR-8 ovarian
  TGI: > 100 µM
EKVX NSCLC
  TGI: 77 µM
A549 NSCLC
  TGI: > 100 µM
HCC-2998 colon
  TGI: > 100 µM
CCRF-CEM leukemia
  TGI: 49.8 µM
SF-539 CNS
  TGI: > 100 µM

## O=C1c2c(nc3ccccc3c2-c2ccccc2)CN1Nc1ccccn1
SK-MEL-2 melanoma
  TGI: > 100 µM
KM12 colon
  TGI: > 100 µM
TK-10 renal
  TGI: > 100 µM
CAKI-1 renal
  TGI: > 86.9 µM
OVCAR-8 ovarian
  TGI: > 87.1 µM
EKVX NSCLC
  TGI: > 100 µM
A549 NSCLC
  TGI: > 100 µM
HCC-2998 colon
  TGI: > 100 µM
CCRF-CEM leukemia
  TGI: > 100 µM
SF-539 CNS
  TGI: 99.5 µM

## Cc1cccc(NC(=O)C(=O)C(C(=O)c2ccccc2F)C2OC(=O)c3ccccc32)c1Cl (stereo not given)
SK-MEL-2 melanoma
  TGI: > 100 µM
KM12 colon
  TGI: 94.5 µM
TK-10 renal
  TGI: > 100 µM
CAKI-1 renal
  TGI: > 100 µM
OVCAR-8 ovarian
  TGI: 50.6 µM
EKVX NSCLC
  TGI: > 100 µM
A549 NSCLC
  TGI: > 100 µM
HCC-2998 colon
  TGI: 43.7 µM
CCRF-CEM leukemia
  TGI: 83 µM
SF-539 CNS
  TGI: 40.4 µM

## CCOC(=O)/C=C(\C(=O)OCC)n1ccc(N)nc1=O
SK-MEL-2 melanoma
  TGI: > 100 µM
KM12 colon
  TGI: > 100 µM
TK-10 renal
  TGI: > 100 µM
CAKI-1 renal
  TGI: > 100 µM
OVCAR-8 ovarian
  TGI: > 100 µM
EKVX NSCLC
  TGI: > 100 µM
A549 NSCLC
  TGI: > 100 µM
HCC-2998 colon
  TGI: > 100 µM
CCRF-CEM leukemia
  TGI: 60.5 µM
SF-539 CNS
  TGI: > 100 µM

## CCCNC(C#N)c1ccc(C(C#N)NCCC)cc1 (stereo not given)
SK-MEL-2 melanoma
  TGI: > 100 µM
KM12 colon
  TGI: > 100 µM
TK-10 renal
  TGI: > 100 µM
CAKI-1 renal
  TGI: > 100 µM
OVCAR-8 ovarian
  TGI: > 100 µM
EKVX NSCLC
  TGI: > 100 µM
A549 NSCLC
  TGI: > 100 µM
HCC-2998 colon
  TGI: > 100 µM
CCRF-CEM leukemia
  TGI: > 100 µM
SF-539 CNS
  TGI: > 100 µM

## O=c1c2cc(I)ccc2nc(Sc2ncccc2[N+](=O)[O-])n1Cc1ccccc1
SK-MEL-2 melanoma
  TGI: 30.8 µM
KM12 colon
  TGI: > 100 µM
TK-10 renal
  TGI: > 100 µM
CAKI-1 renal
  TGI: > 100 µM
OVCAR-8 ovarian
  TGI: > 100 µM
EKVX NSCLC
  TGI: 71.2 µM
A549 NSCLC
  TGI: > 100 µM
HCC-2998 colon
  TGI: > 100 µM
CCRF-CEM leukemia
  TGI: > 100 µM
SF-539 CNS
  TGI: > 100 µM

## CC(C)(C)C1(COC(=O)c2ccc(N)cc2)COC1
SK-MEL-2 melanoma
  TGI: > 100 µM
KM12 colon
  TGI: > 100 µM
TK-10 renal
  TGI: > 100 µM
CAKI-1 renal
  TGI: > 100 µM
OVCAR-8 ovarian
  TGI: > 100 µM
EKVX NSCLC
  TGI: > 100 µM
A549 NSCLC
  TGI: > 100 µM
HCC-2998 colon
  TGI: > 100 µM
CCRF-CEM leukemia
  TGI: > 100 µM
SF-539 CNS
  TGI: > 100 µM

## CCCCc1ccc(Nc2ncc3[nH]cnc3n2)cc1
SK-MEL-2 melanoma
  TGI: 53.3 µM
KM12 colon
  TGI: 45 µM
TK-10 renal
  TGI: 30.9 µM
CAKI-1 renal
  TGI: 36.4 µM
OVCAR-8 ovarian
  TGI: 36.3 µM
EKVX NSCLC
  TGI: 98.1 µM
A549 NSCLC
  TGI: 53.2 µM
HCC-2998 colon
  TGI: 37.8 µM
CCRF-CEM leukemia
  TGI: > 100 µM
SF-539 CNS
  TGI: 56.5 µM

## COc1cc(CC2c3cc(OC)c(OC)cc3CCN2C)c(Oc2cc3c(cc2OC)-c2c(O)c(OC)cc4c2C(C3)N(C)CC4)cc1OC (stereo not given)
SK-MEL-2 melanoma
  TGI: 58.5 µM
KM12 colon
  TGI: 31.3 µM
TK-10 renal
  TGI: 51.3 µM
CAKI-1 renal
  TGI: 68.4 µM
OVCAR-8 ovarian
  TGI: 44.5 µM
EKVX NSCLC
  TGI: 53.1 µM
A549 NSCLC
  TGI: > 100 µM
HCC-2998 colon
  TGI: 31 µM
CCRF-CEM leukemia
  TGI: 42.8 µM
SF-539 CNS
  TGI: 30.3 µM

## COC(=O)/C=C(/C(=O)OC)c1c(C)c(C)c2c(C)cc(C)cc(C)c1-2
SK-MEL-2 melanoma
  TGI: > 100 µM
KM12 colon
  TGI: > 100 µM
TK-10 renal
  TGI: > 100 µM
CAKI-1 renal
  TGI: > 100 µM
OVCAR-8 ovarian
  TGI: > 100 µM
EKVX NSCLC
  TGI: > 100 µM
A549 NSCLC
  TGI: > 100 µM
HCC-2998 colon
  TGI: > 100 µM
CCRF-CEM leukemia
  TGI: > 100 µM
SF-539 CNS
  TGI: > 100 µM

## C=C(C)C(=O)[C@@]12C(=O)[C@@H](C)CC[C@H]1[C@H](C)C[C@@H]2C=C(C)C
SK-MEL-2 melanoma
  TGI: 26.7 µM
KM12 colon
  TGI: 56.4 µM
TK-10 renal
  TGI: > 100 µM
CAKI-1 renal
  TGI: 99.5 µM
OVCAR-8 ovarian
  TGI: > 100 µM
EKVX NSCLC
  TGI: 93.1 µM
A549 NSCLC
  TGI: > 100 µM
HCC-2998 colon
  TGI: 28 µM
CCRF-CEM leukemia
  TGI: > 100 µM
SF-539 CNS
  TGI: 47.4 µM

## [N-]=[N+]=NCc1cccc(Nc2cc(=O)[nH]c(=O)[nH]2)c1
SK-MEL-2 melanoma
  TGI: > 100 µM
KM12 colon
  TGI: > 100 µM
TK-10 renal
  TGI: > 100 µM
CAKI-1 renal
  TGI: > 100 µM
OVCAR-8 ovarian
  TGI: > 100 µM
EKVX NSCLC
  TGI: > 100 µM
A549 NSCLC
  TGI: > 100 µM
HCC-2998 colon
  TGI: > 100 µM
CCRF-CEM leukemia
  TGI: > 100 µM
SF-539 CNS
  TGI: > 100 µM

## O=C1C(Br)=CC2(C=C1Br)CCNC1=C2C(=O)c2cccnc2C1=O
SK-MEL-2 melanoma
  TGI: 10.9 µM
KM12 colon
  TGI: 35.8 µM
TK-10 renal
  TGI: 35.9 µM
CAKI-1 renal
  TGI: 32.3 µM
OVCAR-8 ovarian
  TGI: 32.4 µM
EKVX NSCLC
  TGI: 28.5 µM
A549 NSCLC
  TGI: 30.1 µM
HCC-2998 colon
  TGI: 31.9 µM
CCRF-CEM leukemia
  TGI: 25.5 µM
SF-539 CNS
  TGI: 20.9 µM

## NC(=S)Nc1[nH]c(=S)nc2c1SC1=N/C(=C\c3ccco3)C(=O)N12
SK-MEL-2 melanoma
  TGI: > 100 µM
KM12 colon
  TGI: > 100 µM
TK-10 renal
  TGI: > 100 µM
CAKI-1 renal
  TGI: > 100 µM
OVCAR-8 ovarian
  TGI: > 100 µM
EKVX NSCLC
  TGI: > 100 µM
A549 NSCLC
  TGI: > 100 µM
HCC-2998 colon
  TGI: > 50.4 µM
CCRF-CEM leukemia
  TGI: > 85.4 µM
SF-539 CNS
  TGI: > 100 µM
